Measurements: PubChem BioAssay (NCI)
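Cultured in 96-well plates, cells were exposed to test compound for 48 hours across five concentrations. Definition used: TGI = concentration required for complete inhibition of growth.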

What was measured:
Assay in all cases: NCI tumour cell line growth inhibition, 48 h
OVCAR-4 ovarian = tested on: OVCAR-4 ovarian
UACC-257 melanoma = tested on: UACC-257 melanoma
EKVX NSCLC = tested on: EKVX NSCLC
OVCAR-8 ovarian = tested on: OVCAR-8 ovarian
SK-MEL-5 melanoma = tested on: SK-MEL-5 melanoma
RPMI-8226 leukemia = tested on: RPMI-8226 leukemia
HL-60(TB) leukemia = tested on: HL-60(TB) leukemia
UO-31 renal = tested on: UO-31 renal
M19-MEL melanoma = tested on: M19-MEL melanoma
K-562 leukemia = tested on: K-562 leukemia
786-0 renal = tested on: 786-0 renal
HOP-18 NSCLC = tested on: HOP-18 NSCLC
TK-10 renal = tested on: TK-10 renal
HCT-116 colon = tested on: HCT-116 colon
HCT-15 colon = tested on: HCT-15 colon
HT29 colon = tested on: HT29 colon
DMS 273 small cell lung = tested on: DMS 273 small cell lung
A498 renal = tested on: A498 renal
SF-268 CNS = tested on: SF-268 CNS
KM12 colon = tested on: KM12 colon
UACC-62 melanoma = tested on: UACC-62 melanoma
SNB-75 CNS = tested on: SNB-75 CNS
A549 NSCLC = tested on: A549 NSCLC
OVCAR-3 ovarian = tested on: OVCAR-3 ovarian
MOLT-4 leukemia = tested on: MOLT-4 leukemia
DLD-1 colon = tested on: DLD-1 colon
NCI-H226 lung = tested on: NCI-H226 lung
SF-295 CNS = tested on: SF-295 CNS
DMS 114 small cell lung = tested on: DMS 114 small cell lung
HOP-92 NSCLC = tested on: HOP-92 NSCLC
MALME-3M melanoma = tested on: MALME-3M melanoma
U251 CNS = tested on: U251 CNS
M14 melanoma = tested on: M14 melanoma
LXFL 529 NSCLC = tested on: LXFL 529 NSCLC
NCI-H460 lung = tested on: NCI-H460 lung
XF 498 CNS = tested on: XF 498 CNS
IGROV1 ovarian = tested on: IGROV1 ovarian
CCRF-CEM leukemia = tested on: CCRF-CEM leukemia
COLO 205 colon = tested on: COLO 205 colon
SNB-78 CNS = tested on: SNB-78 CNS
CAKI-1 renal = tested on: CAKI-1 renal
SF-539 CNS = tested on: SF-539 CNS
KM20L2 colon = tested on: KM20L2 colon
HCC-2998 colon = tested on: HCC-2998 colon
NCI-H522 lung = tested on: NCI-H522 lung
HOP-62 NSCLC = tested on: HOP-62 NSCLC
SK-OV-3 ovarian = tested on: SK-OV-3 ovarian
SN12C renal = tested on: SN12C renal
SW-620 colon = tested on: SW-620 colon
ACHN renal = tested on: ACHN renal
LOX IMVI melanoma = tested on: LOX IMVI melanoma
SNB-19 CNS = tested on: SNB-19 CNS
SK-MEL-28 melanoma = tested on: SK-MEL-28 melanoma
SK-MEL-2 melanoma = tested on: SK-MEL-2 melanoma
OVCAR-5 ovarian = tested on: OVCAR-5 ovarian
NCI-H23 lung = tested on: NCI-H23 lung
RXF 393 renal = tested on: RXF 393 renal

O=c1[nH]c2c(O)cccc2c2cc3c(c(O)c12)OCO3 gave a TGI (OVCAR-4 ovarian) of 43.6 µM, a TGI (UACC-257 melanoma) of 47.6 µM and a TGI (EKVX NSCLC) of 77.4 µM. The TGI (OVCAR-8 ovarian) was > 100 µM, the TGI (SK-MEL-5 melanoma) was > 100 µM and the TGI (RPMI-8226 leukemia) was 92 µM. The TGI (HL-60(TB) leukemia) was 31.1 µM, the TGI (UO-31 renal) was 54.1 µM and the TGI (M19-MEL melanoma) was 93.5 µM. The TGI (K-562 leukemia) was > 100 µM, the TGI (786-0 renal) was > 100 µM and the TGI (HOP-18 NSCLC) was 0.877 µM. The TGI (TK-10 renal) was > 100 µM, the TGI (HCT-116 colon) was 54.1 µM and the TGI (HCT-15 colon) was > 100 µM. It also gave a TGI (HT29 colon) of 50.6 µM, a TGI (DMS 273 small cell lung) of 59.3 µM and a TGI (A498 renal) of 56.5 µM. The TGI (SF-268 CNS) was 94.2 µM, the TGI (KM12 colon) was 41.2 µM and the TGI (UACC-62 melanoma) was 71.3 µM. For the same compound, the TGI (SNB-75 CNS) was > 100 µM, the TGI (A549 NSCLC) was > 100 µM and the TGI (OVCAR-3 ovarian) was 45.2 µM. The TGI (MOLT-4 leukemia) was > 100 µM, the TGI (DLD-1 colon) was 62.4 µM and the TGI (NCI-H226 lung) was 55 µM. It also gave a TGI (SF-295 CNS) of 44.8 µM, a TGI (DMS 114 small cell lung) of 75.8 µM and a TGI (HOP-92 NSCLC) of 63.9 µM. The TGI (MALME-3M melanoma) was 56.4 µM, the TGI (U251 CNS) was 63.4 µM and the TGI (M14 melanoma) was 52.4 µM. It also gave a TGI (LXFL 529 NSCLC) of 73.1 µM, a TGI (NCI-H460 lung) of 36.6 µM and a TGI (XF 498 CNS) of 56 µM. For the same compound, the TGI (IGROV1 ovarian) was > 100 µM, the TGI (CCRF-CEM leukemia) was 64.3 µM and the TGI (COLO 205 colon) was 34.5 µM. The TGI (SNB-78 CNS) was 80.4 µM, the TGI (CAKI-1 renal) was 40.8 µM and the TGI (SF-539 CNS) was 54.4 µM. For the same compound, the TGI (KM20L2 colon) was 40.4 µM, the TGI (HCC-2998 colon) was 56.1 µM and the TGI (NCI-H522 lung) was 63.4 µM. The TGI (HOP-62 NSCLC) was 61.8 µM, the TGI (SK-OV-3 ovarian) was 84.7 µM and the TGI (SN12C renal) was 92.3 µM. The TGI (SW-620 colon) was > 100 µM, the TGI (ACHN renal) was 49.4 µM and the TGI (LOX IMVI melanoma) was 38.9 µM. The TGI (SNB-19 CNS) was 70.5 µM.

With C1=c2ccccc2=C2C(=C(c3ccccc3)C(c3ccccc3)=NN2c2ccccc2)S1 the TGI (SK-MEL-28 melanoma) was > 100 µM, the TGI (OVCAR-4 ovarian) was > 100 µM and the TGI (UACC-257 melanoma) was > 100 µM. The TGI (EKVX NSCLC) was > 100 µM, the TGI (OVCAR-8 ovarian) was > 100 µM and the TGI (SK-MEL-5 melanoma) was > 100 µM. For the same compound, the TGI (RPMI-8226 leukemia) was > 100 µM, the TGI (HL-60(TB) leukemia) was > 100 µM and the TGI (UO-31 renal) was > 100 µM. For the same compound, the TGI (M19-MEL melanoma) was > 100 µM, the TGI (K-562 leukemia) was > 100 µM and the TGI (786-0 renal) was > 100 µM. For the same compound, the TGI (HOP-18 NSCLC) was > 100 µM, the TGI (TK-10 renal) was > 100 µM and the TGI (HCT-116 colon) was > 100 µM. For the same compound, the TGI (HCT-15 colon) was > 100 µM, the TGI (HT29 colon) was > 100 µM and the TGI (DMS 273 small cell lung) was > 100 µM. For the same compound, the TGI (A498 renal) was > 100 µM, the TGI (SK-MEL-2 melanoma) was > 100 µM and the TGI (SF-268 CNS) was > 100 µM. The TGI (KM12 colon) was > 100 µM, the TGI (UACC-62 melanoma) was > 100 µM and the TGI (SNB-75 CNS) was > 100 µM. The TGI (A549 NSCLC) was > 100 µM, the TGI (MOLT-4 leukemia) was > 100 µM and the TGI (OVCAR-5 ovarian) was > 100 µM. For the same compound, the TGI (DLD-1 colon) was > 100 µM, the TGI (NCI-H226 lung) was > 100 µM and the TGI (SF-295 CNS) was > 100 µM. The TGI (DMS 114 small cell lung) was > 100 µM, the TGI (NCI-H23 lung) was > 100 µM and the TGI (HOP-92 NSCLC) was > 100 µM. The TGI (MALME-3M melanoma) was > 100 µM, the TGI (U251 CNS) was > 100 µM and the TGI (M14 melanoma) was > 100 µM. The TGI (RXF 393 renal) was > 100 µM, the TGI (LXFL 529 NSCLC) was > 100 µM and the TGI (NCI-H460 lung) was > 100 µM. The TGI (IGROV1 ovarian) was > 100 µM, the TGI (CCRF-CEM leukemia) was > 100 µM and the TGI (COLO 205 colon) was > 100 µM. The TGI (SNB-78 CNS) was > 100 µM, the TGI (CAKI-1 renal) was > 100 µM and the TGI (SF-539 CNS) was > 100 µM. For the same compound, the TGI (KM20L2 colon) was > 100 µM, the TGI (HCC-2998 colon) was > 100 µM and the TGI (NCI-H522 lung) was > 100 µM. For the same compound, the TGI (HOP-62 NSCLC) was > 100 µM, the TGI (SK-OV-3 ovarian) was > 100 µM and the TGI (SN12C renal) was > 100 µM. The TGI (SW-620 colon) was > 100 µM, the TGI (ACHN renal) was > 100 µM and the TGI (LOX IMVI melanoma) was > 100 µM. For the same compound, the TGI (SNB-19 CNS) was > 100 µM.
